The NIST ThermoML archive (doi:10.1021/acs.jced.8b00132)
Values joined by “and” are separate entries in the source; they are usually repeats but may differ in a detail not shown here. Equal entries are not always repeated. ± gives the expanded uncertainty stated by the source.

With `O=C(C(F)(F)C(F)(F)F)C(F)(C(F)(F)F)C(F)(F)F` [dodecafluoro-2-methylpentan-3-one] the thermal conductivity (359.78 K, 24942 kPa, Liquid, transient hot wire) was 0.06009 ± 0.0012 W/m/K, the thermal conductivity (359.79 K, 91 kPa, Gas, transient hot wire) was 0.01762 ± 0.0011 W/m/K and the thermal conductivity (359.79 K, 92 kPa, Gas, transient hot wire) was 0.01704 ± 0.001 W/m/K. For the same compound, the thermal conductivity (359.83 K, 255 kPa, Gas, transient hot wire) was 0.01639 ± 0.001 W/m/K and 0.01638 ± 0.001 W/m/K, the thermal conductivity (359.85 K, 7097 kPa, Liquid, transient hot wire) was 0.05177 ± 0.0011 W/m/K and the thermal conductivity (359.85 K, 7099 kPa, Liquid, transient hot wire) was 0.05171 ± 0.0011 W/m/K. The thermal conductivity (359.89 K, 18005 kPa, Liquid, transient hot wire) was 0.05715 ± 0.0012 W/m/K, the thermal conductivity (359.9 K, 18006 kPa, Liquid, transient hot wire) was 0.05719 ± 0.0012 W/m/K and the thermal conductivity (359.92 K, 186 kPa, Gas, transient hot wire) was 0.01654 ± 0.001 W/m/K and 0.01651 ± 0.001 W/m/K. The thermal conductivity (359.92 K, 3418 kPa, Liquid, transient hot wire) was 0.04946 ± 0.001 W/m/K, the thermal conductivity (359.93 K, 3420 kPa, Liquid, transient hot wire) was 0.04957 ± 0.001 W/m/K and the thermal conductivity (359.99 K, 11963 kPa, Liquid, transient hot wire) was 0.05432 ± 0.0011 W/m/K. It also gave a thermal conductivity (360 K, 26 kPa, Gas, transient hot wire) of 0.01679 ± 0.001 W/m/K, a thermal conductivity (360.01 K, 26 kPa, Gas, transient hot wire) of 0.01682 ± 0.001 W/m/K and a thermal conductivity (360.01 K, 11965 kPa, Liquid, transient hot wire) of 0.05404 ± 0.0011 W/m/K. The thermal conductivity (360.03 K, 353 kPa, Liquid, transient hot wire) was 0.0473 ± 0.00099 W/m/K, the thermal conductivity (360.04 K, 353 kPa, Liquid, transient hot wire) was 0.0473 ± 0.00099 W/m/K and the thermal conductivity (360.05 K, 352 kPa, Liquid, transient hot wire) was 0.04729 ± 0.00099 W/m/K and 0.0475 ± 0.00099 W/m/K. The thermal conductivity (360.09 K, 92 kPa, Gas, transient hot wire) was 0.01711 ± 0.0011 W/m/K and 0.01617 ± 0.001 W/m/K, the thermal conductivity (360.11 K, 7096 kPa, Liquid, transient hot wire) was 0.05168 ± 0.0011 W/m/K and the thermal conductivity (360.11 K, 7097 kPa, Liquid, transient hot wire) was 0.0517 ± 0.0011 W/m/K. For the same compound, the thermal conductivity (360.19 K, 3417 kPa, Liquid, transient hot wire) was 0.04945 ± 0.001 W/m/K, the thermal conductivity (360.19 K, 3421 kPa, Liquid, transient hot wire) was 0.04947 ± 0.001 W/m/K and the thermal conductivity (360.32 K, 353 kPa, Liquid, transient hot wire) was 0.0473 ± 0.00099 W/m/K. The thermal conductivity (360.33 K, 352 kPa, Liquid, transient hot wire) was 0.0473 ± 0.00099 W/m/K and 0.04729 ± 0.00099 W/m/K, the thermal conductivity (360.33 K, 353 kPa, Liquid, transient hot wire) was 0.04728 ± 0.00098 W/m/K and the thermal conductivity (360.34 K, 26 kPa, Gas, transient hot wire) was 0.01682 ± 0.001 W/m/K and 0.01675 ± 0.001 W/m/K. The thermal conductivity (373.92 K, 307 kPa, Gas, hot wire) was 0.01816 ± 0.00086 W/m/K, the thermal conductivity (373.92 K, 308 kPa, Gas, hot wire) was 0.01812 ± 0.00086 W/m/K and the thermal conductivity (373.97 K, 206 kPa, Gas, hot wire) was 0.01727 ± 0.00081 W/m/K. The thermal conductivity (373.97 K, 207 kPa, Gas, hot wire) was 0.0173 ± 0.00081 W/m/K, the thermal conductivity (374 K, 102 kPa, Gas, hot wire) was 0.01713 ± 0.00081 W/m/K and 0.01722 ± 0.00081 W/m/K and the thermal conductivity (374.03 K, 306 kPa, Gas, hot wire) was 0.01829 ± 0.00087 W/m/K and 0.01823 ± 0.00086 W/m/K. The thermal conductivity (374.08 K, 25 kPa, Gas, hot wire) was 0.01652 ± 0.00078 W/m/K and 0.01647 ± 0.00078 W/m/K, the thermal conductivity (374.1 K, 205 kPa, Gas, hot wire) was 0.01731 ± 0.00082 W/m/K and the thermal conductivity (374.1 K, 206 kPa, Gas, hot wire) was 0.01733 ± 0.00082 W/m/K. For the same compound, the thermal conductivity (374.14 K, 102 kPa, Gas, hot wire) was 0.01694 ± 0.0008 W/m/K and 0.01695 ± 0.0008 W/m/K, the thermal conductivity (374.15 K, 305 kPa, Gas, hot wire) was 0.01837 ± 0.00087 W/m/K and the thermal conductivity (374.17 K, 305 kPa, Gas, hot wire) was 0.01816 ± 0.00086 W/m/K. The thermal conductivity (374.21 K, 25 kPa, Gas, hot wire) was 0.01648 ± 0.00078 W/m/K, the thermal conductivity (374.22 K, 25 kPa, Gas, hot wire) was 0.01645 ± 0.00078 W/m/K and the thermal conductivity (374.23 K, 205 kPa, Gas, hot wire) was 0.0174 ± 0.00082 W/m/K and 0.01741 ± 0.00082 W/m/K. It also gave a thermal conductivity (374.28 K, 102 kPa, Gas, hot wire) of 0.01696 ± 0.0008 W/m/K, a thermal conductivity (374.28 K, 304 kPa, Gas, hot wire) of 0.01841 ± 0.00087 W/m/K and a thermal conductivity (374.28 K, 305 kPa, Gas, hot wire) of 0.01852 ± 0.00088 W/m/K. The thermal conductivity (374.29 K, 102 kPa, Gas, hot wire) was 0.01693 ± 0.0008 W/m/K, the thermal conductivity (374.35 K, 25 kPa, Gas, hot wire) was 0.01656 ± 0.00078 W/m/K and 0.01653 ± 0.00078 W/m/K and the thermal conductivity (374.36 K, 203 kPa, Gas, hot wire) was 0.01755 ± 0.00083 W/m/K. The thermal conductivity (374.37 K, 204 kPa, Gas, hot wire) was 0.01751 ± 0.00083 W/m/K, the thermal conductivity (374.42 K, 102 kPa, Gas, hot wire) was 0.01695 ± 0.0008 W/m/K and the thermal conductivity (374.42 K, 303 kPa, Gas, hot wire) was 0.01848 ± 0.00088 W/m/K and 0.01842 ± 0.00087 W/m/K. The thermal conductivity (374.43 K, 102 kPa, Gas, hot wire) was 0.01693 ± 0.0008 W/m/K, the thermal conductivity (374.49 K, 376 kPa, Gas, transient hot wire) was 0.01734 ± 0.0011 W/m/K and the thermal conductivity (374.5 K, 25 kPa, Gas, hot wire) was 0.01656 ± 0.00078 W/m/K and 0.01659 ± 0.00078 W/m/K. For the same compound, the thermal conductivity (374.5 K, 377 kPa, Gas, transient hot wire) was 0.01734 ± 0.0011 W/m/K, the thermal conductivity (374.51 K, 202 kPa, Gas, hot wire) was 0.0176 ± 0.00083 W/m/K and the thermal conductivity (374.51 K, 203 kPa, Gas, hot wire) was 0.01762 ± 0.00083 W/m/K. The thermal conductivity (374.52 K, 308 kPa, Gas, transient hot wire) was 0.01738 ± 0.0011 W/m/K, the thermal conductivity (374.53 K, 307 kPa, Gas, transient hot wire) was 0.01737 ± 0.0011 W/m/K and the thermal conductivity (374.58 K, 101 kPa, Gas, hot wire) was 0.01698 ± 0.0008 W/m/K. The thermal conductivity (374.59 K, 101 kPa, Gas, hot wire) was 0.01691 ± 0.0008 W/m/K, the thermal conductivity (374.59 K, 207 kPa, Gas, transient hot wire) was 0.01758 ± 0.0011 W/m/K and the thermal conductivity (374.6 K, 206 kPa, Gas, transient hot wire) was 0.01761 ± 0.0011 W/m/K. For the same compound, the thermal conductivity (374.66 K, 25 kPa, Gas, hot wire) was 0.0166 ± 0.00078 W/m/K and 0.01657 ± 0.00078 W/m/K, the thermal conductivity (374.69 K, 376 kPa, Gas, transient hot wire) was 0.01733 ± 0.0011 W/m/K and the thermal conductivity (374.7 K, 376 kPa, Gas, transient hot wire) was 0.01734 ± 0.0011 W/m/K. The thermal conductivity (374.74 K, 306 kPa, Gas, transient hot wire) was 0.01741 ± 0.0011 W/m/K, the thermal conductivity (374.81 K, 206 kPa, Gas, transient hot wire) was 0.01763 ± 0.0011 W/m/K and 0.01767 ± 0.0011 W/m/K and the thermal conductivity (374.92 K, 374 kPa, Gas, transient hot wire) was 0.01739 ± 0.0011 W/m/K. The thermal conductivity (374.92 K, 375 kPa, Gas, transient hot wire) was 0.01742 ± 0.0011 W/m/K, the thermal conductivity (374.97 K, 305 kPa, Gas, transient hot wire) was 0.0175 ± 0.0011 W/m/K and the thermal conductivity (374.97 K, 306 kPa, Gas, transient hot wire) was 0.01752 ± 0.0011 W/m/K. For the same compound, the thermal conductivity (375.05 K, 205 kPa, Gas, transient hot wire) was 0.01769 ± 0.0011 W/m/K, the thermal conductivity (375.15 K, 373 kPa, Gas, transient hot wire) was 0.01743 ± 0.0011 W/m/K and the thermal conductivity (375.15 K, 374 kPa, Gas, transient hot wire) was 0.01735 ± 0.0011 W/m/K. For the same compound, the thermal conductivity (375.2 K, 304 kPa, Gas, transient hot wire) was 0.01738 ± 0.0011 W/m/K, the thermal conductivity (375.21 K, 304 kPa, Gas, transient hot wire) was 0.01741 ± 0.0011 W/m/K and the thermal conductivity (375.3 K, 204 kPa, Gas, transient hot wire) was 0.01791 ± 0.0011 W/m/K and 0.0176 ± 0.0011 W/m/K. The thermal conductivity (375.4 K, 372 kPa, Gas, transient hot wire) was 0.01754 ± 0.0011 W/m/K, the thermal conductivity (375.4 K, 373 kPa, Gas, transient hot wire) was 0.01755 ± 0.0011 W/m/K and the thermal conductivity (375.47 K, 303 kPa, Gas, transient hot wire) was 0.01756 ± 0.0011 W/m/K. For the same compound, the thermal conductivity (375.48 K, 303 kPa, Gas, transient hot wire) was 0.01757 ± 0.0011 W/m/K and the thermal conductivity (375.57 K, 202 kPa, Gas, transient hot wire) was 0.01755 ± 0.0011 W/m/K.
